Measurements as given in PubChem BioAssay AID248 (DTP/NCI, 2004).
Several values for one entry are separate records, joined by “and”; a condition that tells them apart may be missing. Identical values can stand only once. Toxic doses and inconclusive results are not listed.

Test system: L1210 leukemia ip in BDF1 mice, survival T/C
Test: NCI In Vivo Anticancer Drug Screen. Data for tumor model L1210 Leukemia (intraperitoneal) in B6D2F1 (BDF1) mice
Conditions: endpoint: mean survival time, higher = longer survival
Outline: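 Tumor cells were implanted, animals were treated, and survival was followed. The result divides the treated measurement by the vehicle-control measurement.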

## Nc1nc(=S)c2[nH]cnc2[nH]1
dose: 0.04 mg/kg/injection, schedule: Q01DX Z (ip), vehicle: carboxymethylcellulose (CMC)
  T/C: 113 % of control
dose: 0.06 mg/kg/injection, schedule: Q01DX009 (ip), vehicle: alkali diluted with saline
  T/C: 106 % of control and 108 % of control
dose: 0.06 mg/kg/injection, schedule: Q01DX Z (ip), vehicle: carboxymethylcellulose (CMC)
  T/C: 105 % of control
dose: 0.06 mg/kg/injection, schedule: Q#A X Z (ip), vehicle: saline
  T/C: 121 % of control
dose: 0.09 mg/kg/injection, schedule: Q01DX Z (ip), vehicle: carboxymethylcellulose (CMC)
  T/C: 109 % of control
dose: 0.12 mg/kg/injection, schedule: Q01DX009 (ip), vehicle: alkali diluted with saline
  T/C: 111 % of control
dose: 0.13 mg/kg/injection, schedule: Q01DX Z (ip), vehicle: saline
  T/C: 111 % of control
dose: 0.13 mg/kg/injection, schedule: Q01DX Z (sc), vehicle: saline
  T/C: 107 % of control
dose: 0.14 mg/kg/injection, schedule: Q01DX Z (ip), vehicle: carboxymethylcellulose (CMC)
  T/C: 110 % of control
dose: 0.22 mg/kg/injection, schedule: Q01DX Z (ip), vehicle: carboxymethylcellulose (CMC)
  T/C: 115 % of control
dose: 0.22 mg/kg/injection, schedule: Q07DX003 (ip), vehicle: saline
  T/C: 113 % of control
dose: 0.25 mg/kg/injection, schedule: Q01DX Z (sc), vehicle: saline
  T/C: 116 % of control
dose: 0.33 mg/kg/injection, schedule: Q01DX015 (ip), vehicle: alkali diluted with saline
  T/C: 102 % of control
dose: 0.33 mg/kg/injection, schedule: Q01DX Z (ip), vehicle: carboxymethylcellulose (CMC)
  T/C: 119 % of control
dose: 0.37 mg/kg/injection, schedule: Q03DX006 (ip), vehicle: saline
  T/C: 114 % of control
dose: 0.43 mg/kg/injection, schedule: Q01DX009 (ip), vehicle: alkali diluted with saline
  T/C: 152 % of control
dose: 0.44 mg/kg/injection, schedule: Q07DX003 (ip), vehicle: saline
  T/C: 122 % of control
dose: 0.5 mg/kg/injection, schedule: Q01DX006 (iv), vehicle: saline
  T/C: 106 % of control
dose: 0.5 mg/kg/injection, schedule: Q01DX Z (im), vehicle: saline
  T/C: 109 % of control
dose: 0.5 mg/kg/injection, schedule: Q01DX Z (ip), vehicle: carboxymethylcellulose (CMC)
  T/C: 111 % of control
dose: 0.5 mg/kg/injection, schedule: Q01DX Z (oral), vehicle: saline
  T/C: 113 % of control
dose: 0.55 mg/kg/injection, schedule: Q01DX015 (ip), vehicle: alkali diluted with saline
  T/C: 151 % of control
dose: 0.55 mg/kg/injection, schedule: Q## X015 (ip), vehicle: alkali diluted with saline
  T/C: 151 % of control
dose: 0.75 mg/kg/injection, schedule: Q03DX006 (ip), vehicle: saline
  T/C: 118 % of control
dose: 0.88 mg/kg/injection, schedule: Q01DX001 (ip), vehicle: saline
  T/C: 115 % of control
dose: 0.88 mg/kg/injection, schedule: Q03HX016 (ip), vehicle: alkali diluted with saline
  T/C: 150 % of control
dose: 0.88 mg/kg/injection, schedule: Q03HX024 (ip), vehicle: alkali diluted with saline
  T/C: 152 % of control
dose: 0.9 mg/kg/injection, schedule: Q01DX015 (ip), vehicle: alkali diluted with saline
  T/C: 152 % of control
dose: 1.0 mg/kg/injection, schedule: Q01DX006 (iv), vehicle: saline
  T/C: 112 % of control
dose: 1.0 mg/kg/injection, schedule: Q01DX Z (ip), vehicle: carboxymethylcellulose (CMC)
  T/C: 152 % of control
dose: 1.0 mg/kg/injection, schedule: Q01DX Z (oral), vehicle: saline
  T/C: 116 % of control
dose: 1.2 mg/kg/injection, schedule: Q03HX032 (ip), vehicle: alkali diluted with saline
  T/C: 151 % of control and 152 % of control
dose: 1.5 mg/kg/injection, schedule: Q03DX006 (ip), vehicle: saline
  T/C: 154 % of control
dose: 1.75 mg/kg/injection, schedule: Q01DX001 (ip), vehicle: saline
  T/C: 109 % of control
dose: 1.8 mg/kg/injection, schedule: Q04DX002 (ip), vehicle: alkali diluted with saline
  T/C: 110 % of control
dose: 2.0 mg/kg/injection, schedule: Q01DX Z (sc), vehicle: saline
  T/C: 153 % of control
dose: 2.5 mg/kg/injection, schedule: Q01DX010 (ip), vehicle: other
  T/C: 123 % of control
dose: 3.5 mg/kg/injection, schedule: Q01DX001 (ip), vehicle: saline
  T/C: 109 % of control and 120 % of control
dose: 3.5 mg/kg/injection, schedule: Q04DX008 (ip), vehicle: alkali diluted with saline
  T/C: 154 % of control
dose: 3.7 mg/kg/injection, schedule: Q01DX Z (ip), vehicle: carboxymethylcellulose (CMC)
  T/C: 110 % of control
dose: 4.0 mg/kg/injection, schedule: Q01DX Z (im), vehicle: saline
  T/C: 119 % of control
dose: 4.0 mg/kg/injection, schedule: Q01DX Z (ip), vehicle: carboxymethylcellulose (CMC)
  T/C: 93 % of control
dose: 4.0 mg/kg/injection, schedule: Q01DX Z (sc), vehicle: saline
  T/C: 106 % of control
dose: 5.0 mg/kg/injection, schedule: Q01DX010 (ip), vehicle: other
  T/C: 98 % of control and 104 % of control
dose: 5.3 mg/kg/injection, schedule: Q04DX012 (ip), vehicle: alkali diluted with saline
  T/C: 153 % of control
